Assay results reported in patent publication US20050100888A1, “Methods based on hormone dependency of primary cancer cells” (Imperial College Innovations Limited, priority 2002, published 2005).

What was measured:
estrogen receptor (ER) [1] = target: T1, estrogen receptor (ER) (Homo sapiens, UniProt P03372); conditions: ER positive cell lines (MCF-7, T47-D, ZR75-1, BT474), virus 100:1, ligands 10^−7M
T1 sequence (P03372 1-595): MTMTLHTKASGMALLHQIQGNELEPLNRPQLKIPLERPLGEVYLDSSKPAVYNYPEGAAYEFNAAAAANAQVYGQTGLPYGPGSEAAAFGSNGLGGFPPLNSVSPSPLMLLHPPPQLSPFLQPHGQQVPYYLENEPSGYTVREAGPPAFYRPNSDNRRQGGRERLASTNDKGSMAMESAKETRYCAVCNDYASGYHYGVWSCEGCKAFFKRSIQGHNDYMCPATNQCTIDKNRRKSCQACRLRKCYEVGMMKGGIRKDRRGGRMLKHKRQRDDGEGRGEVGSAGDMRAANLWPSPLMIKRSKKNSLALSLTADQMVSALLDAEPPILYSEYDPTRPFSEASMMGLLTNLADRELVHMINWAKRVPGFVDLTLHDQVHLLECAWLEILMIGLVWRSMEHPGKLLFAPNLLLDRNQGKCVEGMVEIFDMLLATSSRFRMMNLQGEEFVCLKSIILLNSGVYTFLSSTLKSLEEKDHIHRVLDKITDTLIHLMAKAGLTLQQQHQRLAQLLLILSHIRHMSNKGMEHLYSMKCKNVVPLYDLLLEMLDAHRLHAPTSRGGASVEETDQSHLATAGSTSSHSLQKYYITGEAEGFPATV
Procedure: (§1) Reporter Gene Assay 48 hours after virus infection, 20 ul of 20% Triton in PBS was added to each well and incubated at RT for 10 minutes. […] (CRPG) made up in TBS at a concentration of 8 mg/ml was then added to the wells and the plate was incubated, foil-wrapped, at 37° C. until a colour change was observed. Plate readings were taken at a wavelength of 547 nm.

estrogen receptor (ER) [2] = test: adenoERreporter assay in breast cancer cells from metastatic effusions (pleural, ascites); type: cell-based, human
Excerpt: In the case of metastatic fluid, 100 mls of the fluid was sent for cytological examination and staining for ER and PR. The remaining fluid was centrifuged and the cell pellets were pooled. This was re-suspended in RPMI-1640/1% FCS and tumour cell numbers estimated as before. If the cells were in clusters, trypsin/EDTA (Sigma, Poole, UK) was used to obtain single cell suspensions before filtering to remove any debris. The remaining steps were as above. The purified cells were either infected immediately or cultured for a few days prior to infection.
For infections of primary cells, 6-10,000 cells/well were allowed and exposed to the given quantity of virus, after which they were pelleted and re-supended in 200 ul of PR free/5% DSS medium containing the appropriate ligands prior to plating into 96-well plates.
as §1
We purified breast cancer cells from metastatic fluid, both pleural and ascites as well as fine needle aspirates (FNA) from recurrent breast cancer. These cells were counted and infected with adenoERreporter and after 48 hours a β-gal assay was performed. We have infected 9 metastatic effusions including 2 cell lines of passage number two, derived from pleural effusions and 4 FNAs. Tables 3 and 4 show the treatment history and characteristics of the patients that provided the samples. Where possible, some of the fluid was sent for cytology and ER staining.

C[C@]12CC[C@@H]3c4ccc(O)cc4C[C@@H](CCCCCCCCC[S+]([O-])CCCC(F)(F)C(F)(F)F)[C@H]3[C@@H]1CC[C@@H]2O (some centres unmarked) [ICI 182,780]
reporter activity above baseline (estrogen receptor (ER) [1]): blocked even the baseline activity
Reporter Activity (estrogen receptor (ER) [2]; Table 3 patient 7) T4G3N1M0, Ascites, ER−/PR−, no prior endocrine treatment): x1.0
Reporter Activity (estrogen receptor (ER) [2]; Table 3 patient 8) T1G1N1M0, Ascites, primary ER−/PR+, recurrent ER++/PR−, prior LHRH 11m, Arimidex): ↓↓
effect on ER activity (estrogen receptor (ER) [2]; patient 4 (table 3), ascites, no previous treatment): inhibitory
proportion of cases in which inhibitory (estrogen receptor (ER) [2]; relapsed patients, metastatic effusions and FNAs): 50%
